US5034390A, “Pyridyl-and pyrmidyl-piperazines useful for the treatment of mental disorders” (Pharmacia AB, priority 1988, dated 1991)
Where a name gives a salt, the structure may show the parent alone.

Key:
[1] = combined 5-HT2/D2 affinity; cited from earlier work
5-HT2 receptors = target: T1, 5-HT2 receptors (Rattus norvegicus, UniProt P14842); assay: Affinity to 5-HT2 receptors (3H-ketanserine binding assay, Leysen et al.); details: 3H-ketanserine as ligand
T1 construct: from tissue
Experimental: The binding assay is carried out essentially as described by Leysen et al. (Mol. Pharmacol. 21, 301-14, 1982) using ^3 H-ketanserine as ligand.

T1 sequence (P14842 whole entry): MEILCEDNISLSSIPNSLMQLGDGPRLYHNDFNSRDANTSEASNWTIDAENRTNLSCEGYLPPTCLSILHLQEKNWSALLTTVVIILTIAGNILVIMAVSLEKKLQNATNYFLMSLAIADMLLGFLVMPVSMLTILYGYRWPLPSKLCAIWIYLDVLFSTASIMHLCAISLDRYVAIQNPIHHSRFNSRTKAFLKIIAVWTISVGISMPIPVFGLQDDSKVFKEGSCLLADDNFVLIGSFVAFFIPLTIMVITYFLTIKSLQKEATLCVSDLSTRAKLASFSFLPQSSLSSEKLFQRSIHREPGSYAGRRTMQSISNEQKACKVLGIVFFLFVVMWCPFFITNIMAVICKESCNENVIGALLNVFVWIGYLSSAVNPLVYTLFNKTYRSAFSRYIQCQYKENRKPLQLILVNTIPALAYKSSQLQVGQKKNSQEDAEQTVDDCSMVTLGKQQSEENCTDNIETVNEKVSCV

Row | SMILES | antipsychotic effect / extrapyramidal side-effects [1] | Ki (5-HT2 receptors) [nM]
1 | CN1CCN(C2=Nc3cc(Cl)ccc3Nc3ccccc32)CC1 [clozapine] | antipsychotic effect with a low degree of extrapyramidal side-effects | –
2 | Fc1ccc(CCCCN2CCN(c3cccc(Cl)n3)CC2)cc1 [2:9, 4-/4-(p-fluorophenyl)butyl/-1-/6-chloro-2-pyridyl/piperazine hydrochloride] | – | 7
3 | COc1cccc(N2CCN(CCCOc3ccc(F)cc3)CC2)n1 [2:10, 4-/3-(p-fluorophenoxy)propyl/-1-/6-methoxy-2-pyridyl/piperazine fumarate] | – | 11
4 | NC(=O)c1cccnc1N1CCN(CCCSc2ccc(F)cc2)CC1 [2:19, 4-/3-(p-fluorothiophenoxy)propyl/-1-/3-carbamyl-2-pyridyl/piperazine dihydrochloride] | – | 7
